Measurements from the NIST ThermoML archive (doi:10.1016/j.fluid.2017.06.019).

Conditions: Coaxial cylinder method

CCC [propane]
thermal conductivity [W/m/K]
Conditions	Gas	Liquid
364.65 K, 4080 kPa	–	0.06377
364.65 K, 4100 kPa	–	0.06381
364.65 K, 4120 kPa	–	0.06385
364.65 K, 4140 kPa	–	0.06391
364.65 K, 4160 kPa	–	0.06398
364.65 K, 4180 kPa	–	0.06404
364.65 K, 4200 kPa	–	0.06412
364.65 K, 4220 kPa	–	0.06418
364.65 K, 4240 kPa	–	0.06424
364.65 K, 4260 kPa	–	0.06432
364.65 K, 4280 kPa	–	0.06439
364.65 K, 4300 kPa	–	0.06445
364.65 K, 4349 kPa	–	0.06465
364.65 K, 4364 kPa	–	0.06469
364.65 K, 4372 kPa	–	0.06473
364.65 K, 4380 kPa	–	0.06475
364.65 K, 4388 kPa	–	0.06475
365.72 K, 3306 kPa	0.03402	0.03402
365.72 K, 3882 kPa	0.04279	–
365.72 K, 3883 kPa	0.04289	–
365.72 K, 3884 kPa	0.04575	–
365.72 K, 3885 kPa	0.04607	–
365.72 K, 3890 kPa	0.05157	–
365.72 K, 3891 kPa	0.05307	–
365.72 K, 3892 kPa	0.05526	–
365.72 K, 3893 kPa	0.0573	–
365.72 K, 3894 kPa	0.05933	–
365.72 K, 3895 kPa	0.06131	–
365.72 K, 3896 kPa	0.06342	–
365.72 K, 3897 kPa	0.06568	–
365.72 K, 3898 kPa	0.06813	–
365.72 K, 3899 kPa	0.07049	–
365.72 K, 3900 kPa	0.07276	–
365.72 K, 3901 kPa	0.07497	–
365.72 K, 3902 kPa	0.07801	–
365.72 K, 3903 kPa	0.0811	–
365.72 K, 3904 kPa	0.08423	–
365.72 K, 3905 kPa	0.08726	–
365.72 K, 3906 kPa	0.09038	–
365.72 K, 3907 kPa	0.09365	–
365.72 K, 3908 kPa	0.09697	–
365.72 K, 3909 kPa	0.1001	–
365.72 K, 3910 kPa	0.1033	–
365.72 K, 3911 kPa	0.1068	–
365.72 K, 3912 kPa	0.1099	–
365.72 K, 3913 kPa	0.1132	–
365.72 K, 3914 kPa	0.1164	–
365.72 K, 3915 kPa	0.1201	–
365.72 K, 3916 kPa	0.1234	–
365.72 K, 3917 kPa	0.1273	–
365.72 K, 3918 kPa	0.1307	–
365.72 K, 3919 kPa	0.1341	–
365.72 K, 3920 kPa	0.1379	–
365.72 K, 3921 kPa	0.1413	–
